In US20200270309A1, “MALEIMIDE GROUP-MODIFIED ANGIOGENESIS INHIBITOR HM-1 AND USE THEREOF” (NANJING ANJI BIOLOGICAL TECHNOLOGY CO., LTD, priority 2017, published 2020):
Marks after values point to notes of the source that are not given here. Peptide text beside a SMILES is read from it. * marks the point of attachment. X64 = O=C1C=CC(=O)N1c1cccc(CCCCCCCCCC(=O)*)c1; X52 = O=C1C=CC(=O)N1c1ccccc1CCCCCCCC(=O)*

Assays:
[1] = test system: collagen-induced arthritis; assay: Mouse collagen-induced arthritis (CIA) animal model; type: in vivo; details: DBA/1 mice CIA model, dose 4.0 mg/kg, subcutaneous from day 30, n=10; for Clinical score: highest score 16
[2] = test system: retinal vascular endothelial nuclei; assay: Neovascularization in a rat model of premature retinopathy; type: in vivo, rats; details: dose 0.05 μM in the vitreous chamber from day 7 of modeling for one week; counted on day 14; oxygen-induced neonatal rats
How it was run: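 Newborn rats kept 7 d in chamber alternating 80% and 10% O2 every 24 h (23 °C), then room air. Intravitreal injection of test agents on day 7, saline for model and control; eyes taken day 14, HE-stained 4 μm sections. Endothelial nuclei breaching retinal inner limiting membrane counted, averaged per section per eye (10 sections).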

HUVECs = assay: Transwell migration inhibition on HUVECs; type: cell-based, human; details: HUVEC migration vs blank control
[3] = test system: IL-1β production by mouse peritoneal macrophages; assay: IL-1β production by mouse peritoneal macrophages (ELISA); type: cell-based; details: for Inhibition rate: IL-1β production, vs model group; for IL-1β: mouse peritoneal macrophages, 48 h, ELISA
How it was run: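 Starch-elicited (6%, i.p.) mouse peritoneal macrophages, 2×10^6 cells/mL in RPMI 1640, adhered 3 h; non-adherent cells washed off. Polypeptides added at low, medium and high concentrations, Dex as positive control; cultured 48 h, supernatant IL-1β measured.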

[4] = test system: xylene-induced ear swelling; assay: Xylene-induced mouse ear swelling; type: in vivo; details: Kunming mice, injected once a day for 5 days; for Inhibition rate (%): xylene-induced ear swelling
How it was run: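 Kunming mice dosed by injection once daily for 5 days; 1 h after last dose, 0.05 mL xylene applied to right ear, left ear untreated. Mice killed 2 h later; punched ear pieces weighed. Swelling degree = right minus left ear weight; swelling rate = swelling degree/left ear weight ×100%.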

[5] = test system: retinal neovascularization (OIR model); assay: Retinal vessels in OIR mice; type: in vivo, C57/B16 mice; details: for Area of neovascular plexus (mm^2): dose 0.05 μM in the vitreous chamber on day 13, retinal vessels evaluated on day 17; for Inhibition rate (%): dose 0.05 μM in the vitreous chamber on day 13, retinal vessels evaluated on day 17, vs negative control
How it was run: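 C57/B16 pups were held in 75% oxygen from postnatal day 7 to 12, then returned to room air. On day 13 they received intravitreal saline or compound. On day 17 perfused vessels were labelled by Texas red tomato agglutinin injected into the left ventricle (5 min circulation) and retinal vasculature assessed.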

[6] = Half-lives and pharmacokinetic parameters of polypeptides vs HM-1; details: in vivo; for half-life: T1/2β (half-life)
[7] = dose 2 mg/kg, right minus left ear piece weight 2 h after xylene
[8] = dose 4 mg/kg, right minus left ear piece weight 2 h after xylene
[9] = dose 8 mg/kg, right minus left ear piece weight 2 h after xylene

SMILES	Joint swelling degree (mm) [1]	Left and right paw swelling degree (mm) [1]	Clinical score [1]	Nuclei count (retinal vascular endothelial nuclei, average per section per eyeball) [2]	Inhibition rate (%) (HUVECs; dose 0.05 μM)	Inhibition rate (%) (HUVECs; dose 0.1 μM)	Inhibition rate (%) (HUVECs; dose 0.2 μM)	Inhibition rate ([3]; dose 0.05 μM)	IL-1β ([3]; dose 0.05 μM)	Inhibition rate ([3]; dose 0.1 μM)	IL-1β ([3]; dose 0.1 μM)	Inhibition rate ([3]; dose 0.2 μM)	IL-1β ([3]; dose 0.2 μM)	Inhibition rate (%) ([4]; dose 2 mg/kg)	Swelling degree (mg) [4, 8]	Inhibition rate (%) ([4]; dose 4 mg/kg)	Swelling degree (mg) [4, 9]	Inhibition rate (%) ([4]; dose 8 mg/kg)	Area of neovascular plexus (mm^2) [5]	Inhibition rate (%) [5]	further results
C[C@H](NC(=O)CNC(=O)[C@H](CCCNC(=N)N)NC(=O)CCCCCCCc1ccccc1N1C(=O)C=CC1=O)C(=O)N[C@@H](CC(=O)O)C(=O)N[C@@H](CCCNC(=N)N)C(=O)N[C@@H](C)C(=O)NCC(=O)NCC(=O)NCC(=O)NCC(=O)N[C@@H](CCCNC(=N)N)C(=O)NCC(=O)N[C@@H](CC(=O)O)C(=O)O [X19] (X52-RGADRAGGGGRGD-OH)	0.84 ± 0.18 mm	0.82 ± 0.14 mm	8.72 ± 1.41	7.236 ± 1.218	40.99%	46.77%	54.44%	37.19%	591.13 ± 10.54 pg/mL	37.27%	590.42 ± 10.34 pg/mL	37.39%	589.21 ± 12.08 pg/mL	20.06%	3.97 ± 0.61** mg	36.28%	3.8 ± 0.03** mg	39.00%	0.083 ± 0.019 mm^2	60.85%**	Swelling degree (mg) [4, 7]: 4.98 ± 0.72* mg; AUC(0-inf) [6]: 32200 ± 6970 ng·h/mL; MRT inf [6]: 57.6 ± 10.8 h; clearance [6]: 0.518 mL/min/kg; half-life [6]: 39.95 ± 0.28 h
C[C@H](NC(=O)CNC(=O)[C@H](CCCNC(=N)N)NC(=O)CCCCCCCCCc1cccc(N2C(=O)C=CC2=O)c1)C(=O)N[C@@H](CC(=O)O)C(=O)N[C@@H](CCCNC(=N)N)C(=O)N[C@@H](C)C(=O)NCC(=O)NCC(=O)NCC(=O)NCC(=O)N[C@@H](CCCNC(=N)N)C(=O)NCC(=O)N[C@@H](CC(=O)O)C(=O)O [X33] (X64-RGADRAGGGGRGD-OH)	0.82 ± 0.11 mm	0.74 ± 0.17 mm	9.08 ± 1.25	7.654 ± 1.142	42.63%	47.45%	54.20%	25.68%	699.41 ± 11.17 pg/mL	34.80%	613.62 ± 19.23 pg/mL	36.96%	593.32 ± 11.64 pg/mL	17.34%	5.15 ± 0.19* mg	29.21%	4.41 ± 0.9** mg	48.31%	0.089 ± 0.029 mm^2	58.02%**	Swelling degree [4, 7]: 3.22 ± 0.59 mg; AUC(0-inf) [6]: 34000 ± 7620 ng·h/mL; MRT inf [6]: 60.8 ± 12 h; clearance [6]: 0.49 mL/min/kg; half-life [6]: 42.15 ± 0.26 h
